Measurements reported in patent US8703483B2, “Reagents and methods for using human embryonic stem cells to evaluate toxicity of pharmaceutical compounds and other chemicals” (Wisconsin Alumni Research Foundation, priority 2006, dated 2014).

Tested on: human embryonic stem cells
Test: Metabolite profiling (LC/ESI-TOF mass spectrometry) of extracellular media of hESCs treated with alcohol
Format: cell-based
Details: ETOH 0.1; 4 D
Excerpt: Binned masses were annotated in silico by querying the neutral masses in several different databases. These databases included Metlin, Biological Magnetic Resonance Data Bank (BMRB), NIST Chemistry WebBook, and the Human Metabolome Database. A mass was considered identified when its neutral mass was within 10 ppm of a known compound annotated in one of the databases listed above.

Compound: CCO [ETOH]
- Fold: 2-Oxo-4-methylthiobutanoic acid, mass 148.016, RT 52.88652: −2.444 fold
- Fold: 3-(2,5-Dimethoxy phenylpropionic acid, mass 210.0922, RT 36.18938): 1.864 fold
- Fold: (+)-Eudesmin, mass 386.1724, RT 51.65871: 5.309 fold
- Fold: (+/−)-2-(4′-Isobutylphenyl)propionitrile, mass 187.1348, RT 46.31086: 2.329 fold
- Fold: Acetylcarnitine / L-Glutamic acid n-butyl ester, mass 203.1138, RT 9.675726: −1.707 fold
- Fold: Benzenemethanol, 2-(2-aminopropoxy)-3-methyl- / a-[1-(ethylamino)ethyl]-p-hydroxy-Benzyl alcohol, mass 195.124, RT 31.19917: −2.225 fold
- Fold: Benzenemethanol, 2-(2-aminopropoxy)-3-methyl- / a-[1-(ethylamino)ethyl]-p-hydroxy-Benzyl alcohol, mass 195.1253, RT 38.99212: 2.159 fold
- Fold: Homogentisic acid / Vanillic acid, mass 168.0434, RT 19.18355: −1.468 fold
- Fold: L-Oleandrosyl-oleandolide, mass 530.314, RT 23.87065: 1.965 fold
- Fold: L-Urobilinogen;, mass 596.3543, RT 25.14927: 1.396 fold
- Fold: N-Methyl-2-pyrrolidinone, mass 99.0689, RT 15.48433: 1.434 fold
- Fold: Neu5Acalpha2-3Galbeta1-4Glcbeta-Sp / Neu5Acalpha2-6Galbeta1-4Glcbeta-Sp, mass 702.2497, RT 40.84822: −2.769 fold
- Fold: Pantothenol / dimethylbutanamide;, mass 205.1304, RT 6.747279: −1.2578 fold
- Fold: Phenanthrene-9,10-oxide, mass 194.073, RT 5.935143: −1.389 fold
- Fold: Unknown, mass 99.1043, RT 52.01225: 2.703 fold
- Fold: Unknown, mass 120.2112, RT 13.40565: 4.847 fold
- Fold: Unknown, mass 131.076, RT 14.35336: 3.629 fold
- Fold: Unknown, mass 197.1769, RT 48.37093: −3.119 fold
- Fold: Unknown, mass 243.1089, RT 17.7027: −2.181 fold
- Fold: Unknown, mass 268.2487, RT 42.3656: −1.55 fold
- Fold: Unknown, mass 272.16, RT 43.99398: 2.187 fold
- Fold: Unknown, mass 292.1862, RT 37.97297: 2.239 fold
- Fold: Unknown, mass 293.9773, RT 4.014175: 1.939 fold
- Fold: Unknown, mass 295.1521, RT 8.967061: 1.513 fold
- Fold: Unknown, mass 298.174, RT 50.75387: −3.002 fold
- Fold: Unknown, mass 300.1147, RT 18.88505: 2.686 fold
- Fold: Unknown, mass 301.1345, RT 7.719471: 6.649 fold
- Fold: Unknown, mass 312.1341, RT 15.22357: −2.015 fold
- Fold: Unknown, mass 315.6732, RT 26.51229: 2.015 fold
- Fold: Unknown, mass 325.2711, RT 18.82373: −1.756 fold
- Fold: Unknown, mass 325.2714, RT 20.94557: −2.074 fold
- Fold: Unknown, mass 353.2765, RT 3.85935: 2.622 fold
- Fold: Unknown, mass 357.1781, RT 25.16993: 2.217 fold
- Fold: Unknown, mass 359.1532, RT 24.01428: 1.536 fold
- Fold: Unknown, mass 360.1321, RT 18.50245: 2.11 fold
- Fold: Unknown, mass 362.2787, RT 83.72506: 2.916 fold
- Fold: Unknown, mass 368.2122, RT 27.98054: 1.695 fold
- Fold: Unknown, mass 379.1771, RT 20.76168: 1.54 fold
- Fold: Unknown, mass 383.1721, RT 15.20829: 1.915 fold
- Fold: Unknown, mass 384.2127, RT 23.38956: −2.556 fold
- Fold: Unknown, mass 387.0812, RT 19.97914: −1.977 fold
- Fold: Unknown, mass 388.2349, RT 46.346: 1.947 fold
- Fold: Unknown, mass 403.1978, RT 51.66325: 3.116 fold
- Fold: Unknown, mass 405.2001, RT 30.70733: 2.668 fold
- Fold: Unknown, mass 408.1636, RT 16.21743: 1.966 fold
- Fold: Unknown, mass 417.2338, RT 33.09057: 2.033 fold
- Fold: Unknown, mass 417.2386, RT 21.14975: −1.98 fold
- Fold: Unknown, mass 420.1862, RT 26.77212: 3.283 fold
- Fold: Unknown, mass 429.2533, RT 18.03482: −1.808 fold
- Fold: Unknown, mass 429.2535, RT 30.24237: 1.805 fold
- Fold: Unknown, mass 431.2501, RT 35.58196: 1.532 fold
- Fold: Unknown, mass 440.0223, RT 4.808947: −1.528 fold
- Fold: Unknown, mass 443.2381, RT 24.13915: 2.986 fold
- Fold: Unknown, mass 443.3216, RT 67.0705: 1.752 fold
- Fold: Unknown, mass 444.2237, RT 51.58546: 2.131 fold
- Fold: Unknown, mass 460.9391, RT 33.51823: −4.518 fold
- Fold: Unknown, mass 467.3804, RT 46.51446: 2.068 fold
- Fold: Unknown, mass 468.2002, RT 51.6158: 1.875 fold
- Fold: Unknown, mass 471.7804, RT 30.72707: −2.836 fold
- Fold: Unknown, mass 478.2761, RT 30.28867: 1.699 fold
- Fold: Unknown, mass 487.3472, RT 66.73744: 2.931 fold
- Fold: Unknown, mass 489.2127, RT 21.72729: −1.51 fold
- Fold: Unknown, mass 510.8202, RT 31.22083: 2.488 fold
- Fold: Unknown, mass 525.3161, RT 34.57864: 1.551 fold
- Fold: Unknown, mass 526.2773, RT 51.73057: 3.446 fold
- Fold: Unknown, mass 531.2876, RT 32.50661: 2.106 fold
- Fold: Unknown, mass 531.3191, RT 35.58454: −1.252 fold
- Fold: Unknown, mass 531.3736, RT 66.31491: 3.863 fold
- Fold: Unknown, mass 541.3274, RT 32.24719: 2.162 fold
- Fold: Unknown, mass 545.3029, RT 17.6573: −1.395 fold
- Fold: Unknown, mass 554.8471, RT 31.891: 2.038 fold
- Fold: Unknown, mass 555.2406, RT 15.78741: 1.835 fold
- Fold: Unknown, mass 555.8505, RT 5.742094: −1.289 fold
- Fold: Unknown, mass 556.3971, RT 88.02533: −3.118 fold
- Fold: Unknown, mass 559.8329, RT 31.97996: −1.7213 fold
- Fold: Unknown, mass 574.3397, RT 24.7039: 1.584 fold
- Fold: Unknown, mass 574.3427, RT 31.71105: 1.75 fold
- Fold: Unknown, mass 576.096, RT 47.90467: 1.361 fold
- Fold: Unknown, mass 589.6938, RT 35.26918: 1.82 fold
- Fold: Unknown, mass 591.3789, RT 31.54325: 1.578 fold
- Fold: Unknown, mass 603.3535, RT 32.67372: −2.63 fold
- Fold: Unknown, mass 619.3409, RT 33.68866: 1.857 fold
- Fold: Unknown, mass 620.8861, RT 32.73907: 2.249 fold
- Fold: Unknown, mass 635.4065, RT 32.08734: 1.393 fold
